From PubChem BioAssay AID1645866 (Buhrlage Lab, Dana-Farber Cancer Institute and Novartis …, 2021)
Calls of active or inactive are those of the source.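 Rule for the calls: active = in confirmatory dose-response testing, peak deubiquitinase inhibition of 30% or more; inactive = the rest.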 Positions of bridges follow the written chain, without caps; N, C: chain ends. Residues, ends and D or L forms follow the SMILES beside them. ξ: configuration not given here. *: point of attachment. Pentadecanoyl(3ξ-OH,15-Gua) = N=C(N)NCCCCCCCCCCCCC(O)CC(=O)*

Target: Ubiquitin carboxyl-terminal hydrolase 28 (Homo sapiens) (UniProt Q96RU2)
Sequence (Q96RU2 whole entry, looked up): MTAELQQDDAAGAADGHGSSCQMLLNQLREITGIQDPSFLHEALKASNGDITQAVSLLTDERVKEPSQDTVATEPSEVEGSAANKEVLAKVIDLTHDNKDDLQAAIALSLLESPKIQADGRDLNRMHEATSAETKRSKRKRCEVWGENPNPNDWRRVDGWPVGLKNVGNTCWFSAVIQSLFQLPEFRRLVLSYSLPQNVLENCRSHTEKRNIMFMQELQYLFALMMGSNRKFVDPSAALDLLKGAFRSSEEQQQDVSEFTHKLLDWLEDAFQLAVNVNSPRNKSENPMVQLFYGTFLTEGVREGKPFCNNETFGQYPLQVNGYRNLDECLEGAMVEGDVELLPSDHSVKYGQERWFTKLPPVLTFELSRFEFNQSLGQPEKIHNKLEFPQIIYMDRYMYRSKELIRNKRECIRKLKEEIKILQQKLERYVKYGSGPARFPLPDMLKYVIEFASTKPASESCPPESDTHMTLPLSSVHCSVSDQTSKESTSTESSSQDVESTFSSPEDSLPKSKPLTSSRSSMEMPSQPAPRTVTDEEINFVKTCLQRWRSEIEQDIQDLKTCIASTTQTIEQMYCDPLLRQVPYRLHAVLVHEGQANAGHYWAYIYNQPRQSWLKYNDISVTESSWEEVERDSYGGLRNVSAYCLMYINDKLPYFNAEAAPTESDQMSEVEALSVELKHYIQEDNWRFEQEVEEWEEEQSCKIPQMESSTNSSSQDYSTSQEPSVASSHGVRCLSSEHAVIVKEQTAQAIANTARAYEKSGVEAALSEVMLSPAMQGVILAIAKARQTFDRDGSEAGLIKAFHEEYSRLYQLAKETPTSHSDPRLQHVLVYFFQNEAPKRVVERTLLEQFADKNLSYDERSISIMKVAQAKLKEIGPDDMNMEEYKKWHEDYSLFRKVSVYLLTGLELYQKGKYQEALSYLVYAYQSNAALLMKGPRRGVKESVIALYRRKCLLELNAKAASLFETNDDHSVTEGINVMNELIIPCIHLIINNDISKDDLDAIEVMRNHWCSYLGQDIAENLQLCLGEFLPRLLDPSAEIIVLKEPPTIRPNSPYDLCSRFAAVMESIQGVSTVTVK
Experiment: Ubiquitin-specific peptidase 28 DUB inhibitors, biochemical concentration-dependence assay, validation of primary screening hits (AID 1645866)
Settings: purified USP28, ubiquitin-rhodamine fluorescence, 30 min

SMILES	IC50
CCc1noc(Cn2cnc3c4ccccc4n(CC(=O)NC4CCCCC4)c3c2=O)n1	40 µM
Cc1ccc(NC(=O)Cn2cc(S(=O)(=O)N3CCCC3)ccc2=O)cc1	17.2 µM
Cc1ccc(-c2nc(-c3cccs3)cc(C(F)(F)F)c2C#N)cc1	> 50 µM (inactive)
O=C(CCCCn1c(=O)[nH]c2ccccc2c1=O)Nc1cccc(Cl)c1	16.7 µM
COc1cccc(NC(=O)C2CCN(C(=O)c3cc(-c4cccnc4)n[nH]3)CC2)c1	20.3 µM
Fc1cccc(-n2cc(-c3noc(-c4ccc[nH]4)n3)nn2)c1	27.5 µM
Cc1ccc(CNC(=O)Cn2cnc3c(cnn3-c3cccc(Cl)c3)c2=O)cc1	2.58 µM
O=C(Nc1cccc(F)c1)c1ncoc1-c1ccco1	> 50 µM (inactive)
CCOC(=O)c1cn(C2CC2)c2cc(N3CCNCC3)c([N+](=O)[O-])cc2c1=O	> 50 µM (inactive)
Cc1cccc(C(=O)N2CCN3Cc4ccccc4N(C)CC3C2)c1 (stereo unspecified)	> 50 µM (inactive)
Cc1ccc(NC(=O)Cn2c(-n3nc(C)cc3C)nc3c(c2=O)CCCC3)c(C)c1	35.8 µM
CC1CCN(c2cc(-n3cnc(C(=O)N4CCCCC4)c3)ncn2)CC1	25.9 µM
O=C1COc2ccc(NC(=O)c3cnn(Cc4ccccc4)c3)cc2N1	25.4 µM
Cc1cc(-c2nnc(SCC(=O)Nc3ccc(Br)c(C)c3)n2N)n[nH]1	15.6 µM
COc1ccc(NC(=O)C2CCCN(S(=O)(=O)N3CCCCCC3)C2)cc1 (stereo unspecified)	21.8 µM
N[C@@H](Cc1ccccc1)C(=O)N1CCC2(CC1)CN(C(=O)c1ccc(Cl)cc1)CCO2	> 50 µM (inactive)
O=C(Cn1cnc(-c2noc(-c3ccncc3)n2)c1)N1CCN(c2ccccc2F)CC1	> 50 µM (inactive)
CC[C@H](C)[C@H](NC(=O)[C@H]([C@@H](C)CC)N(C)C(C)=O)C(=O)N[C@H](C(=O)N[C@@H](CC(C)C)C(=O)C1(C)CO1)[C@@H](C)O (stereo partly specified)	> 50 µM (inactive)
COCC(=O)Nc1cc(F)c2nc(N3CCOCC3)ccc2c1	> 50 µM (inactive)
COc1ccc(CNc2nn3c(-c4cncc(OC)c4)cnc3s2)cc1	2.61 µM
CC1CC[C@@]2(NC1)O[C@H]1C[C@H]3[C@@H]4CC=C5C[C@@H](O)CC[C@]5(C)[C@H]4CC[C@]3(C)[C@H]1[C@@H]2C (stereo partly specified)	34.3 µM
Cc1ccc(-n2c(-c3ccccc3)cn3c4c(=O)[nH]c(=O)n(C)c4nc23)cc1C	0.641 µM
COc1cccc(N2CCN(C(=O)C3CCN(c4nc(NC(C)=O)ns4)CC3)CC2)c1	> 50 µM (inactive)
CC(C)(C)c1cc(CCC(=O)Nc2c3c(nc4c2CCC4)CCCC3)cc(C(C)(C)C)c1O	> 50 µM (inactive)

SMILES	IC50
CCOc1ccc(-n2c(C)cc(/C=C(\C#N)c3nc4ccccc4[nH]3)c2C)cc1	> 50 µM (inactive)
COc1ccc(/C=C/c2ccnc3nc(-n4cccc4)nn23)cc1	> 50 µM (inactive)
O=C(CCC1CCCCC1)Nc1ccccc1C(=O)N1CCOCC1	> 50 µM (inactive)
Cc1ccc(-c2nc(Cn3nnc(-c4nc(-c5ccccn5)no4)c3C)c(C)o2)cc1	> 50 µM (inactive)
Cc1cccc(-n2ccnc(SCC(=O)Nc3ccc(Cl)cc3F)c2=O)c1	3.91 µM
COc1ccc(CNC(=O)CN2C(=O)C(C)=C(c3ccc(C)cc3)S2(=O)=O)cc1	> 50 µM (inactive)
COc1ccc(-c2nc3n(n2)C(CC(=O)Nc2cccc4ccccc24)C(=O)N3)cc1 (stereo unspecified)	4.08 µM
COc1ccccc1S(=O)(=O)N1CC[C@@H]2CN(C)[C@@H]2C1	35.1 µM
COc1cccc(Cn2nc3n(CC(C)C)c(=O)c4ccc(C(=O)NCC(C)C)cc4n3c2=O)c1	6.72 µM
Cc1cnc(CN2CCCC(c3ccc4cn[nH]c4n3)C2)cn1 (stereo unspecified)	> 50 µM (inactive)
CC12c3ccc4c(c3C(=O)c3occ(c31)C(=O)CC2O)CCC4=O (stereo unspecified)	> 50 µM (inactive)
O=C(Nc1cccc2ccccc12)N1CCC(c2nc3c(nnn3Cc3ccc(F)cc3)c(=O)[nH]2)CC1	36.1 µM
Cc1ccccc1OCCSc1nc2ccccc2n1CC(=O)NC1CC1	20.7 µM
COc1cc(=O)c(C(=O)Nc2ccc(C#N)cc2)nn1-c1cccc(F)c1	20.7 µM
CCCc1nc2sc3c(NCCN4CCOCC4)ncnc3c2c2c1CCC2	0.592 µM
O=C(O)CCCCCN1C(=O)CC(c2ccc(Cl)cc2)CC1=O	16.7 µM
Cc1cc(CSc2ncccc2C(=O)Nc2ccnn2Cc2cccnc2)no1	> 50 µM (inactive)
CCOc1ccc(CCNC(=O)c2ccc3c(c2)N(CC)C(=O)c2ccccc2S3)cc1OCC	1.89 µM
Cc1ccc(NC(=O)/C=C/c2cccc(C(F)(F)F)c2)c(O)c1	16.2 µM
CCn1cc2c(n1)c(=O)n(Cc1ccc(C)cc1)c(=O)n2CC(=O)Nc1ccc(F)cc1	11 µM
Cc1ccc(Nc2nc(C(=O)NCc3ccc4c(c3)OCO4)cc3occc23)cc1Cl	19 µM
CCCc1nc2c(sc3nc4c(cc32)COC(C)(C)C4)c(=O)n1CC(=O)Nc1ccccc1C	21.9 µM
CNC(=O)c1cc2nc(N(C)C)n(-c3ccc(F)cc3)c2s1	11.6 µM
O=C(COc1ccc(Cl)cc1Cl)Nc1ccc2[nH]c(=O)[nH]c2c1	5.44 µM

SMILES	IC50
COc1ccc(OC)c2c(C)cc(N3CCN(S(=O)(=O)c4ccc5c(c4)CCCN5S(C)(=O)=O)CC3)nc12	17.9 µM
Cc1ccc(NC(=O)C2CCN(c3cncnc3N3CCCC3)CC2)cc1	0.456 µM
Cc1ccc(O)c(-c2cc(C(=O)Nc3ccccc3Cl)[nH]n2)c1	17.1 µM
CC1(C)CC(n2[nH]c(=O)c3c2NC(=O)CSC3c2ccc(OCc3ccccc3)cc2)CCO1 (stereo unspecified)	17.7 µM
O=C(Nc1ccc2nccnc2c1)c1cccc(C(F)(F)F)c1	33.6 µM
COc1ccccc1N1CCN(C(=O)c2ccc3c(c2)N(Cc2cc(C)ccc2C)C(=O)c2ccccc2S3=O)CC1 (stereo unspecified)	29.7 µM
O=C(Cn1ccc2ccc(N3CCOCC3)nc21)NCc1ccccc1F	> 50 µM (inactive)
COc1ccc(NC2c3ccccc3C(=O)N2c2ccccn2)cc1 (stereo unspecified)	> 50 µM (inactive)
O=C1N[C@@H](Cc2ccccc2)C(=O)N2[C@H]3Nc4ccccc4[C@@]3([C@]34C[C@H]5C(=O)N[C@@H](Cc6ccccc6)C(=O)N5[C@H]3Nc3ccccc34)C[C@@H]12	29.4 µM
CC(c1ccccc1)n1c(-c2ccc(F)cc2)nc2c(c(=O)c3ccccc3n2C)c1=O (stereo unspecified)	1.85 µM
CC(=O)N1CCOc2cc(S(=O)(=O)N3CCCC3c3cc(C)no3)ccc21 (stereo unspecified)	22.9 µM
Cc1cccc(OCCn2c(CCNC(=O)C3CCCCC3)nc3ccccc32)c1	21.6 µM
CC(=O)c1oc2nc3c(c(-c4ccc(Cl)cc4)c2c1N)CCc1ccccc1-3	> 50 µM (inactive)
CCOc1ccc(NC(=O)COc2cccc3c2CCN(CC)C3=O)cc1	4.24 µM
O=c1c2c(ccn1Cc1cc(F)ccc1F)ccn2Cc1cccnc1	7.21 µM
CCN1C(=O)COc2ccc(NC(=O)c3ccc(OCc4nonc4C)cc3)cc21	4.85 µM
Cc1cccc(S(=O)(=O)N2CCc3nc4ccccc4n3CC2)c1	24.3 µM
COc1ccc(C2CC(c3ccc(C)cc3)N(C(=O)C3CC3)c3ncnn32)cc1 (stereo unspecified)	> 50 µM (inactive)
COc1ccc(NC(=O)c2ccnc(Nc3ccc(OC)cc3)c2)cc1	39.7 µM
CC1CS(=O)(=O)N(c2ccc(C(=O)Nc3ccc4c(c3)OCCO4)cc2)C1=O (stereo unspecified)	7.25 µM
O=C(Nc1cc(Cl)cc(Cl)c1)c1csnn1	15.9 µM
Cc1ccc(C(=O)NCc2ccc(C(=O)Nc3cccc(C)c3)o2)cc1	28.1 µM
NS(=O)(=O)c1ccc(NC(=O)Cn2cnc3cc([N+](=O)[O-])ccc3c2=O)cc1	19.9 µM
Cc1cc(-c2cnc(N(C)C)nc2-c2ccc(CNC(=O)Cc3ccc(F)cc3)cc2)on1	28.7 µM

SMILES	IC50
CCOc1ccc2c(c1)c(=O)c(C(=O)c1ccccc1)cn2CC(=O)Nc1ccc2c(c1)OCCO2	24 µM
Cc1ccccc1-c1noc(-c2ccccc2OCC(=O)NC(C)C)n1	> 50 µM (inactive)
O=C(CN1C(=O)C2CCCC2=Nc2ccccc21)Nc1ccc(F)cc1F (stereo unspecified)	26.2 µM
O=C(NCc1ccc2c(c1)OCO2)c1cc(-c2cc(Cl)ccc2O)n[nH]1	12 µM
Cn1c(=O)c2cc(C(=O)Nc3ccc(F)cc3)cnc2n(C)c1=O	20.8 µM
O=C1N(Cc2cccc(Cl)c2)CCN1c1ccc2c(c1)CCC2	18.2 µM
O=C(CC(C(=O)Nc1ccc2c(c1)OCO2)C(=O)c1ccccc1)Nc1ccc(Cl)cc1F (stereo unspecified)	9.87 µM
Cc1ccc2cc3c(nc2n1)CCN(Cc1ccc(F)cc1)C3	> 50 µM (inactive)
CN(CCCNC(=O)c1cccc2c1SCCC2=O)c1ccccc1	> 50 µM (inactive)
Cc1ccc(NC(=O)c2sc3ncn(CC(=O)N4CCN(c5ccccn5)CC4)c(=O)c3c2C)c(Br)c1	16.1 µM
Cc1nn(-c2ccccc2)c2c1N=C1C(Cl)=CC(Cl)=CN1C21C(=O)Nc2ccccc21 (stereo unspecified)	> 50 µM (inactive)
CC(=O)N1CCc2cc(S(=O)(=O)NCc3ccc(C)cc3)ccc21	> 50 µM (inactive)
CC(=O)N1CCc2cc(CNC(=O)Nc3cc(C)ccc3C)ccc21	46.7 µM
Fc1cccc(-n2cc(-c3noc(-c4ccccn4)n3)nn2)c1	23.7 µM
CC1NC(=O)C(CC(N)=O)NC(=O)C(C(C)O)NC(=O)C(Cc2ccc(O)cc2)NC(=O)C(C(C)C)NC(=O)C(NC(=O)CC(O)CCCCCCCCCCCCN=C(N)N)C(C)OC1=O (stereo unspecified) ({Pentadecanoyl(3ξ-OH,15-Gua)}-TVYTNA; ester 1-C; configuration not given here)	3.63 µM
O=C(Nc1ccc(-c2nnc3n2CCCCC3)cc1)c1ccc2c(c1)OCO2	7.43 µM
O=C(Cn1nnc(-c2ccc(F)cc2)n1)NCCc1ccccc1	44.3 µM
COc1cccc(NC(=O)c2ccc(F)cc2Cl)c1	18.7 µM
CN1CC2CN(C(=O)Nc3cccnc3)CCN2Cc2ccccc21 (stereo unspecified)	> 50 µM (inactive)
Cc1ccc(-n2cc(C(=O)NCc3cccnc3)nn2)cc1C	16.6 µM
O=C(NCc1ccccc1Cl)c1ccc(-c2nnc(-c3ccccc3)o2)cc1	2.13 µM
Cc1ccc(C)c(-n2c(N)c(C(=O)NCCc3ccccc3)c3nc4ccccc4nc32)c1	> 50 µM (inactive)
Cc1cc(C)n2nc(CNc3cccc(Cl)c3)nc2n1	16.4 µM
CC[C@H](C)C[C@H]1CC[C@](O)([C@](C)(O)C(=O)N[C@@H]2C(=O)N3NCCC[C@@H]3C(=O)N(O)[C@@H](C)C(=O)NCC(=O)N3NCCC[C@H]3C(=O)N(O)[C@H](C)C(=O)O[C@H]2C(C)C)O[C@@H]1C	1.52 µM
